This is an account of results in ChEMBL document CHEMBL3507680, “University of Dundee, Gates Library screen for HepG2 cell viability”.

The data set in a line: Human HepG2 cell viability assay in 384 well format. The following applies: HepG2 cells, read-out: Inhibition. In kind it is toxicity, cell-based. Also on record: dose 125 nL, time 70.5 hour; concentration not given beside the values.
Consider `CNC(=O)[C@@H]1CN(Cc2ccccc2)C[C@H]1C(=O)c1ccc(F)cc1`, for which the cytotoxicity at 70.5 h is -1.84%.
With `O=C(c1ccccc1F)N1CCCC1Cn1c(=O)oc2ccccc21` (stereo not given), the cytotoxicity at 70.5 h was -0.201%.
The same measure for `Cc1nn(CCC(=O)NC2CCCOC2)c(C)c1C` (stereo not given): -1.37%; for `CN(CCc1ccncc1)Cc1c(C2CCCC2)[nH]c2ncccc12`: -1.56%.
With `CC(=O)N1CCCC1CCc1ccc(Cl)nn1` (stereo not given) the figure was -2.45%.
With `Cc1ccncc1CN1CCOCC1c1[nH]ncc1C` (stereo not given) the figure was -1.54%.
For the compound `Cc1cn[nH]c1C1COCCN1Cc1c[nH]cn1` (stereo not given), the cytotoxicity at 70.5 h is 4.32%.
With `CC1(c2nccs2)CCN(C(=O)CCN2CCOCC2)CC1` the figure was -1.94%.
The same measure for `CN1CCN(CC2(O)CCCN(S(=O)(=O)c3cn[nH]c3)CC2)CC1` (stereo not given): -3.77%.
Turning to `CN1CCCC1CCNC(=O)c1ccccc1-n1cc(CN)cn1` (stereo not given), the cytotoxicity at 70.5 h turned out to be 1.23%.
The same measure for `CN(C)Cc1cccc(-c2cccnc2C(=O)NCc2ccco2)c1`: -4.14%.
The same measure for `O=C(Cc1ccc(Cl)cc1)N[C@@H]1CCC[C@@H](O)[C@@H]1O`: -0.327%.
With `O=C(CCn1ccnc1)N1CC[C@H](Oc2ccc(F)cc2)[C@@H](O)CC1` the figure was 0.282%.
As to `CC(C)(C(=O)N[C@@H]1CCC[C@@H](O)[C@@H]1O)c1cccc(F)c1`, the cytotoxicity at 70.5 h is -4.01%.
Regarding `Cc1cc(C)c2cc(CNCCCN3CCOCC3)c(=O)[nH]c2c1`, the cytotoxicity at 70.5 h was -7.01%.
With `O=c1[nH]c2ccccc2cc1CNCCCN1CCOCC1` the figure was -1.38%; with `O=C1NCC2(CCCN(Cc3ccncc3)C2)Oc2ccccc21` (stereo not given), -8.47%; with `Cc1csc(C(Cc2ccsc2)NC(=O)C2CCN(S(C)(=O)=O)CC2)n1` (stereo not given), -10%.
With `Cc1nc2cc(C3CCN(Cc4ccccc4F)C3)nn2c(O)c1C` (stereo not given) the figure was -3.81%.
With `CCS(=O)(=O)N1CCC(C(=O)NC(Cc2ccsc2)c2nccs2)CC1` (stereo not given) the figure was 18.9%; with `CCc1ncc(CN2CCc3nc4sc(C)cc4c(=O)n3CC2)cn1`, 17.6%; with `O=C(Cn1cccnc1=O)NC(Cc1ccsc1)c1nccs1` (stereo not given), 17.6%.
On to `Cc1nc(C2CCN(C(=O)c3ccn(C)n3)CC2)c2sccn12`, for which the cytotoxicity at 70.5 h is -5.98%.
In the case of `Cc1nc(C2CCN(C(=O)c3ccnn3C)CC2)c2sccn12`, the cytotoxicity at 70.5 h was -3.95%.
With `COc1ncc(C(=O)N2CCC(c3nc(C)n4ccsc34)CC2)cn1` the figure was 24.2%; with `CS(=O)(=O)c1snnc1C1CCN(Cc2ccc3nccnc3c2)CC1`, -5.73%; with `Cc1cc(C)c2cc(CNCc3ccc(C)o3)c3nn(C)c(=O)n3c2c1`, -5.87%.
The same measure for `Cc1ccc2cc(CNCCN3CCCC3)c(=O)[nH]c2c1`: -0.158%.
As for `CCCn1ncc(CN2C[C@@H]3CCCN3C[C@H]2Cc2ccccc2)c1C`, the cytotoxicity at 70.5 h was found to be 23.6%.
As to `C=Cn1ncc(CN2C[C@@H]3C[C@@H](O)CN3C[C@@H]2Cc2ccccc2)c1C`, the cytotoxicity at 70.5 h came to 1.04%.
With `CNc1cccc(C2CCCN(C(=O)c3cccnc3)C2)n1` (stereo not given) the figure was 20.4%; with `COc1cc(CN2CCC3(CC(Nc4ccncn4)C3)C2)cc(OC)c1` (stereo not given), 0.186%.
`CN(C)Cc1ccnc(C2CCCN2Cc2ccc3ncccc3c2)n1` (stereo not given): the cytotoxicity at 70.5 h is 1.4%.
In the case of `Cc1cccnc1CN1CCC2(CC(Nc3ccncn3)C2)C1` (stereo not given), the cytotoxicity at 70.5 h amounted to 1.25%.
As for `COc1cccc(CN2CCC3(CC(Nc4ccncn4)C3)C2)c1F` (stereo not given), the cytotoxicity at 70.5 h came to 2.19%.
With `CC(C)N1CCC(Cc2cncc(-c3cc(F)ccc3C(=O)O)n2)CC1` the figure was 0.0602%; with `Cc1ccccc1-c1cncc(C2CCN(CC(=O)N(C)C)CC2)n1`, -3.4%.
Consider `C=Cn1ncc(CN2C[C@@H]3CCCN3C[C@H]2Cc2ccccc2)c1C`, for which the cytotoxicity at 70.5 h came to 14.6%.
The same measure for `O=C(N[C@@H]1CCC[C@@H](n2ccnc2)[C@@H]1O)c1ccc2c(c1)CCCC2`: 30.9%.
With `Nc1nc2nc(C3CCN(C(=O)c4cscn4)C3)ccc2s1` (stereo not given) the figure was -5.85%; with `Cn1ccc(C(=O)N2CCC(Cc3cnc4[nH]ccc4c3)C2)n1` (stereo not given), -7.96%; with `CNC(=O)c1cccc(C2CNCCN2C(=O)C2CCNCC2)c1` (stereo not given), -5.44%.
The same measure for `CCc1cc(O)nc(C2CCCN2C(=O)c2cc(CC)on2)n1` (stereo not given): -5.67%; for `Cc1cc(C)nc(Nc2cccc(C3CCCN(CCO)C3)n2)n1` (stereo not given): -4.13%.
Regarding `Cc1n[nH]c(C)c1NC(=O)CCc1cccc(C2CCCN(C)C2)n1` (stereo not given), the cytotoxicity at 70.5 h was -3.99%.
The same measure for `Cc1cccc(C2CCCN(C(=O)c3ccncc3)C2)n1` (stereo not given): -7.3%; for `COCC(=O)N1CCOC(c2ccc(N(C)C)cn2)C1` (stereo not given): 15.3%.
The same measure for `Cc1nc(C)c(C(=O)Nc2cnn(CC(=O)NC3CCCC3)c2)s1`: 14.1%.
As to `Cn1ccc(C(=O)N2CCCC(Cc3cccc4cccnc34)C2)n1` (stereo not given), the cytotoxicity at 70.5 h amounted to 11.6%.
As to `COc1cccc(C(=O)NC(c2ccccn2)[C@H]2CC[C@H](CN)CC2)c1` (stereo not given in full), the cytotoxicity at 70.5 h is -8.19%.
With `CNc1cc(CNC(=O)c2ccccc2OC)nc(-c2ccncc2)n1` the figure was 12.5%.
With `CNc1ccc(CC2CCCN(C(=O)c3cnccn3)C2)nn1` (stereo not given) the figure was -14.4%; with `CNc1ccc(CC2CCCN(C(=O)c3c(C)noc3C)C2)nn1` (stereo not given), -13.8%.
The same measure for `O=C(C1CCC1)N1CCCC(c2cccc(-n3ccnc3)n2)C1` (stereo not given): -6.13%; for `COCC(=O)N1CCCC1c1csc(Nc2cnccn2)n1` (stereo not given): -10.2%; for `Cc1cncc(C2CCN(Cc3cccn3C)CC2)n1`: 11.8%.
`COc1ncc(CN2CCCC(c3[nH]ncc3S(C)(=O)=O)C2)cn1` (stereo not given): the cytotoxicity at 70.5 h was -7.31%.
Turning to `CNc1cncc(C2CCCN2Cc2cccc(C)n2)n1` (stereo not given), the cytotoxicity at 70.5 h was -6.12%.
With `O=C(Cc1ccsc1)N1CCC(O)(CN2CCc3ccccc3C2)C1` (stereo not given) the figure was -5.49%; with `Cc1ccc(C(=O)N2CCCCC2c2[nH]ncc2S(C)(=O)=O)s1` (stereo not given), 12.5%.
`Cn1cccc1C(=O)N1CCCCC1c1[nH]ncc1S(C)(=O)=O` (stereo not given): the cytotoxicity at 70.5 h was -5.18%.
With `O=C(N[C@@H]1CN(Cc2cccc3[nH]ccc23)C[C@H]1O)c1cscn1` the figure was -4.99%; with `COc1ccc(CN2CCOC(CCc3ccnc(N)c3)C2)cc1` (stereo not given), -0.852%.
For the compound `CCN(CC)S(=O)(=O)NCC1COc2ccccc2O1` (stereo not given), the cytotoxicity at 70.5 h stood at 24.9%.
The same measure for `Cn1nc(C2CCCN(Cc3cc(F)cc(F)c3)C2)c2nccnc21` (stereo not given): -1.82%.
As to `Cc1ccc(CN2Cc3ccccc3O[C@]3(CC[C@H](CO)CC3)C2)o1`, the cytotoxicity at 70.5 h turned out to be 52%.
With `CCC(C)S(=O)(=O)N1CCc2nc(C3CCNCC3)ncc2C1` (stereo not given) the figure was -0.105%.
The same measure for `COc1ccc(CN(C)[C@@H]2COC[C@H]2c2ccc(F)cc2)c(OC)c1`: 0.309%; for `c1cnc2[nH]nc(C3CCN(Cc4ccsc4)CC3)c2c1`: -4.44%; for `Fc1ccc(F)c(CN2CCC(c3n[nH]c4ncccc34)CC2)c1`: -7.24%.
